In the NIST ThermoML archive (doi:10.1016/j.jct.2008.07.010) one finds viscosity, speed of sound and mass density data, which are given here for five molecules.

The structures appear in SMILES notation. Values joined by “and” are separate entries in the source; they are usually repeats but may differ in a detail not shown here. Equal values may be shown once. Numbers after ± are expanded uncertainties.

For data set [1] the following is noted: 101 kPa, Liquid; for viscosity: Capillary tube (Ostwald / Ubbelohde) method; for speed of sound: Sing-around technique in a fixed-path interferometer; for mass density: Vibrating tube method.
Data set [2] can be described thus: xn = mol fraction of the nth substance listed. Conditions: 101 kPa, Liquid, x1 = 1; for viscosity: Capillary tube (Ostwald / Ubbelohde) method; for speed of sound: Sing-around technique in a fixed-path interferometer; for mass density: Vibrating tube method.

Usually viscosity stands for the internal friction of a fluid under shear. For orientation: speed of sound means the propagation velocity of pressure waves in the medium. What is called mass density is the mass of a sample divided by its volume. As to `CC(C)CCCC(C)CCCC(C)CCCCC(C)CCCC(C)CCCC(C)C` (stereo not given) [2,6,10,15,19,23-hexamethyltetracosane], the viscosity in data set [1] (298.15 K) worked out at 28.26 ± 0.31 mPa·s; in data set [1] (303.15 K), 22.09 ± 0.26 mPa·s; in data set [1] (308.15 K) it was 17.77 ± 0.21 mPa·s. Further, the speed of sound in data set [1] (298.15 K) was 1381.9 ± 1.3 m/s; in data set [1] (303.15 K), 1364.1 ± 1.3 m/s; in data set [1] (308.15 K), 1346.5 ± 1.3 m/s. In addition, the mass density in data set [1] (298.15 K) stood at 805.122 ± 0.24 kg/m3; in data set [1] (303.15 K), 801.912 ± 0.24 kg/m3; in data set [1] (308.15 K), 798.709 ± 0.24 kg/m3.
On to `CCCCCCCCCCCCCCCC` [hexadecane], for which, in data set [1] (298.15 K), the viscosity worked out at 3.041 ± 0.026 mPa·s, the speed of sound was found to be 1338.6 ± 1.3 m/s and the mass density is recorded as 770.456 ± 0.24 kg/m3. Besides, in data set [1] (303.15 K), the viscosity stood at 2.706 ± 0.024 mPa·s, the speed of sound is listed as 1320 ± 1.3 m/s and the mass density came out at 766.981 ± 0.24 kg/m3. In data set [1] (308.15 K), the viscosity is 2.409 ± 0.022 mPa·s, the speed of sound worked out at 1301.7 ± 1.3 m/s and the mass density is listed as 763.52 ± 0.24 kg/m3.
For the molecule `CC(C)O` [propan-2-ol], in data set [1] (298.15 K), the viscosity is reported as 2.061 ± 0.018 mPa·s; the speed of sound is 1139.3 ± 0.85 m/s and 1139.3 ± 0.9 m/s; the mass density is reported as 781.152 ± 0.15 kg/m3. Besides, in data set [1] (303.15 K), the viscosity was 1.758 ± 0.015 mPa·s, the speed of sound is given as 1122 ± 0.8 m/s and the mass density turned out to be 776.87 ± 0.15 kg/m3. Besides, in data set [1] (308.15 K), the viscosity turned out to be 1.573 ± 0.013 mPa·s, the speed of sound is reported as 1104.5 ± 0.8 m/s and the mass density was 772.511 ± 0.15 kg/m3.
Take `CC(C)O` [propan-2-ol] + CC(C)CCCC(C)CCCC(C)CCCCC(C)CCCC(C)CCCC(C)C: in data set [2] (298.15 K), the viscosity was 2.061 ± 0.018 mPa·s, the speed of sound is 1139.3 ± 0.9 m/s and the mass density is given as 781.152 ± 0.15 kg/m3. Moreover, in data set [2] (303.15 K), the viscosity came out at 1.758 ± 0.015 mPa·s, the speed of sound amounted to 1122 ± 0.8 m/s and the mass density stood at 776.87 ± 0.15 kg/m3. Further, in data set [2] (308.15 K), the viscosity is recorded as 1.573 ± 0.013 mPa·s, the speed of sound is listed as 1104.5 ± 0.8 m/s and the mass density is 772.511 ± 0.15 kg/m3.
Regarding `CC(C)O` [propan-2-ol] + CCCCCCCCCCCCCCCC, in data set [2] (298.15 K), the viscosity stood at 2.061 ± 0.018 mPa·s, the speed of sound stood at 1139.3 ± 0.85 m/s and the mass density stood at 781.152 ± 0.15 kg/m3. Also, in data set [2] (303.15 K), the viscosity is 1.758 ± 0.015 mPa·s, the speed of sound amounted to 1122 ± 0.8 m/s and the mass density stood at 776.87 ± 0.15 kg/m3. Also, in data set [2] (308.15 K), the viscosity is given as 1.573 ± 0.013 mPa·s, the speed of sound worked out at 1104.5 ± 0.8 m/s and the mass density stood at 772.511 ± 0.15 kg/m3.
